The subject of assay [1] is Mus musculus. The assay can be described thus: In vivo inhibition of ear oedema in mice following p.o. administration. Type of assay: functional. To be noted: po.
In assay [2] the test system is Mus musculus. The experiment in a line: In vivo inhibition of AA induced ear oedema in mice following topical administration. Type of assay: functional.
The target of assay [3] is T1, Polyunsaturated fatty acid 5-lipoxygenase (Rattus norvegicus, UniProt P12527).
T1 sequence (P12527 whole entry): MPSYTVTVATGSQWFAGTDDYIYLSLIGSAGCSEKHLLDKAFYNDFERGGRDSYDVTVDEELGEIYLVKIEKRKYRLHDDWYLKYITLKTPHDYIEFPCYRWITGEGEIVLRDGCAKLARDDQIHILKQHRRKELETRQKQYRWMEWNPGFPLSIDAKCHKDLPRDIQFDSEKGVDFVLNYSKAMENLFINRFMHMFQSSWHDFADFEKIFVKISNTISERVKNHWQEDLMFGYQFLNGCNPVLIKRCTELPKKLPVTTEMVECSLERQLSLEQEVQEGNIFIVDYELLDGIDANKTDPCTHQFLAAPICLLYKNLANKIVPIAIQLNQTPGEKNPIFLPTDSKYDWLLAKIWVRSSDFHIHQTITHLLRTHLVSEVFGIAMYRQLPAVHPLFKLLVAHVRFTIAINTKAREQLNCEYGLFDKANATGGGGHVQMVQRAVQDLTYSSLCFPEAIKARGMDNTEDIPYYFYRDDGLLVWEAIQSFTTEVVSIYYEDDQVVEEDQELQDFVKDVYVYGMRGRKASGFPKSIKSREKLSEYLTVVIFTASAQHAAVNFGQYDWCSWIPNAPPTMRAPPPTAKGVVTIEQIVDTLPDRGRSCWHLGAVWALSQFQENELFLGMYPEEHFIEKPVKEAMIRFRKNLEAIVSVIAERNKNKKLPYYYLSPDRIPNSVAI
The experiment in a line: Iin vitro inhibition of 5-lipoxygenase activity in rat basophil leukemia type 1(RBL1) cell homogenates, (reduction of [14C]-5-HETE formation).

Another assay deals with T2, Cyclooxygenase (Rattus norvegicus, UniProt P35355+Q63921).
T2 sequence (P35355 whole entry): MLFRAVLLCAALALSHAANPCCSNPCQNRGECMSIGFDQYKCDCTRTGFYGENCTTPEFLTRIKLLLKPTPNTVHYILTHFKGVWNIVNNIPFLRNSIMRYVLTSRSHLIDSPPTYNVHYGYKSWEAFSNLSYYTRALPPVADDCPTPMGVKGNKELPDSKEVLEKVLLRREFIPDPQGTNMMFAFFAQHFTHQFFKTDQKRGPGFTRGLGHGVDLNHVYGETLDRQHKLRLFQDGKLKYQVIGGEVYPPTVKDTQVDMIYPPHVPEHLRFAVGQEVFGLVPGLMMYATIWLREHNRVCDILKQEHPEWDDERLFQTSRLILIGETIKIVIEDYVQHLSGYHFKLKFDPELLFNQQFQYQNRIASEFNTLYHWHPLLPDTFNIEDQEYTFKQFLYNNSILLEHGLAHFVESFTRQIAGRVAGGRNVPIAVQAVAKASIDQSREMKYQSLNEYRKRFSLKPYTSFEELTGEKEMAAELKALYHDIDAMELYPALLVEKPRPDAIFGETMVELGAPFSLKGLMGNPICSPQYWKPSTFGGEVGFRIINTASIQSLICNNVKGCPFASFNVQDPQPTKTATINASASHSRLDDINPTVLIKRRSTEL
T2 sequence (Q63921 whole entry): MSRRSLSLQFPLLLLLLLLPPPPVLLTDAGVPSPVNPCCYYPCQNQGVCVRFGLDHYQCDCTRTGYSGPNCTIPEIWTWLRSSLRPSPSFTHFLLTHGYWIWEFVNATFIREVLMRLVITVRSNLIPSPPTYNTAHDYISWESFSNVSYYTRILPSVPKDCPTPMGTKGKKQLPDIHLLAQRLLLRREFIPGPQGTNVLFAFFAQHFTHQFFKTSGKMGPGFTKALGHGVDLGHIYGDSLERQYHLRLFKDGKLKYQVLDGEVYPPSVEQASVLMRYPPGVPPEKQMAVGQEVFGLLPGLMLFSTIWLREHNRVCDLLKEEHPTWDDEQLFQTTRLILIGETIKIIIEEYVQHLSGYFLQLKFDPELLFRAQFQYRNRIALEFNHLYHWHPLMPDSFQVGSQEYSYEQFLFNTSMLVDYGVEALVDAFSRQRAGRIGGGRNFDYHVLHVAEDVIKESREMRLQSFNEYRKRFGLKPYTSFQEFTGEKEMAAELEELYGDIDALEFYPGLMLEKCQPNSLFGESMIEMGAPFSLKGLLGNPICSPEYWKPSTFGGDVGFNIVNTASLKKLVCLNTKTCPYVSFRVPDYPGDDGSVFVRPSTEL
The experiment in a line: In vitro for prostaglandin G/H synthase inhibitory activity against rat basophil leukemia type 1 cell homogenates, by measuring the radioactivity of [14C]-PGD2.

Assay [4] concerns the target T1, Polyunsaturated fatty acid 5-lipoxygenase. The assay can be described thus: In vitro inhibition of 5-lipoxygenase in rat (peritoneal assay).
Assay [5] has the same target. The experiment in a line: In vitro inhibitory activity against 5-Lipoxygenase in rat by Peritoneal 5-lipoxygenase assay.

In general, IC50 refers to the concentration at which inhibition is half-maximal.

SMILES strings stand for the structures. Bounds are passed on as bounds.

Take `CCO/C(O)=C(/C=CC(=O)C(=O)c1ccccc1)Sc1ccccc1`: the ED50 was above 50 mg/kg with Mus musculus [1] and above 2 mg ear-1 in the assay with Mus musculus [2]. Besides, the results for the IC50 (in assay [3]; on Cyclooxygenase; in assay [4]) were 2 µM, 12 µM and 3 µM, respectively.
As to `CCOC(=O)C(=CC=C(C(=O)OCC)N(C)C)Sc1ccccc1`, the ED50 in the assay with Mus musculus [2] is above 2 mg ear-1.
In the case of `CCOC(=O)C(=CC=C(SC)C(=O)c1ccccc1)N(C)C`, the IC50 (in assay [3]; in assay [5]; at Cyclooxygenase) was above 50 µM in each case.
`CC(C)(C)c1cc(/C=C2\CCOC2=O)cc(C(C)(C)C)c1O`: the ED50 in the assay on Mus musculus [1] turned out to be 100 mg/kg; in the assay on Mus musculus [2], 0.3 mg ear-1.
In the assay on Mus musculus [2], `O=C(O)C(O)=CC=Cc1ccccc1` came in with an ED50 above 5 mg ear-1.
`CCOC(=O)C(=O)C=C/C(Sc1ccccc1)=C(\O)c1ccccc1` returned an ED50 in the assay on Mus musculus [2] above 2 mg ear-1.
On the same count and under the same terms, the figure for `CCO/C(O)=C(/C=CC=O)Sc1ccccc1` is 2 mg ear-1; for `CCSC(=CC=C(O)C(=O)O)C(=O)O` it is above 0.5 mg ear-1; for `CCOC(=O)C(=O)C=C/C(SCc1ccccc1)=C(\O)OCC` it is above 2 mg ear-1.
Same read-out and setting: the figure for `CCOC(=O)C(=O)C=C/C(=C(\O)OCC)c1ccccc1` is above 2 mg ear-1.
`CCOC(=O)C(=O)C=C/C(O)=C(\O)OCC`: the ED50 in the assay with Mus musculus [2] is given as above 2 mg ear-1.
The same measure, in the same setting: with `CCOC(=O)C(=O)C=C/C(C(=O)c1ccccc1)=C(\O)OCC` the figure was above 2 mg ear-1.
As for `NC1=NN(c2cccc(C(F)(F)F)c2)CC1` [BW-755C], the figures for the ED50 in the assay on Mus musculus [1] and with Mus musculus [2] were 75 mg/kg and 0.08 mg ear-1, respectively. For the same compound, the IC50 on Cyclooxygenase was found to be 6 µM.
On to `CC1=NN(CCOc2ccc3ccccc3c2)C(=O)C1` [NAFAZATROM], for which the ED50 in the assay on Mus musculus [1] is above 100 mg/kg; in the assay on Mus musculus [2] it was 2 mg ear-1.
For the compound `CC(Cc1ccc(O)c(O)c1)C(C)Cc1ccc(O)c(O)c1` (stereo not given) [NORDIHYDROGUAIARETIC ACID], the ED50 is above 100 mg/kg with Mus musculus [1] and 0.1 mg ear-1 in the assay with Mus musculus [2]. Moreover, the IC50 on Cyclooxygenase is above 50 µM.
As to `O=c1c(O)c(-c2ccc(O)c(O)c2)oc2cc(O)cc(O)c12` [QUERCETIN], the ED50 was above 100 mg/kg in the assay with Mus musculus [1] and 1 mg ear-1 in the assay on Mus musculus [2]. Moreover, the IC50 at Cyclooxygenase is above 50 µM.

The values are drawn from ChEMBL document CHEMBL1125118, “Penta- and hexadienoic acid derivatives: a novel series of 5-lipoxygenase inhibitors” (J Med Chem, 1990).
